Test results as given in ChEMBL document CHEMBL1150977, “A quantitative analysis of kinase inhibitor selectivity” (Nat Biotechnol, 2008).

Assays:
[1] = biological target: T1, Serine/threonine-protein kinase DCLK1 (Homo sapiens, UniProt O15075)
T1 sequence (O15075 whole entry): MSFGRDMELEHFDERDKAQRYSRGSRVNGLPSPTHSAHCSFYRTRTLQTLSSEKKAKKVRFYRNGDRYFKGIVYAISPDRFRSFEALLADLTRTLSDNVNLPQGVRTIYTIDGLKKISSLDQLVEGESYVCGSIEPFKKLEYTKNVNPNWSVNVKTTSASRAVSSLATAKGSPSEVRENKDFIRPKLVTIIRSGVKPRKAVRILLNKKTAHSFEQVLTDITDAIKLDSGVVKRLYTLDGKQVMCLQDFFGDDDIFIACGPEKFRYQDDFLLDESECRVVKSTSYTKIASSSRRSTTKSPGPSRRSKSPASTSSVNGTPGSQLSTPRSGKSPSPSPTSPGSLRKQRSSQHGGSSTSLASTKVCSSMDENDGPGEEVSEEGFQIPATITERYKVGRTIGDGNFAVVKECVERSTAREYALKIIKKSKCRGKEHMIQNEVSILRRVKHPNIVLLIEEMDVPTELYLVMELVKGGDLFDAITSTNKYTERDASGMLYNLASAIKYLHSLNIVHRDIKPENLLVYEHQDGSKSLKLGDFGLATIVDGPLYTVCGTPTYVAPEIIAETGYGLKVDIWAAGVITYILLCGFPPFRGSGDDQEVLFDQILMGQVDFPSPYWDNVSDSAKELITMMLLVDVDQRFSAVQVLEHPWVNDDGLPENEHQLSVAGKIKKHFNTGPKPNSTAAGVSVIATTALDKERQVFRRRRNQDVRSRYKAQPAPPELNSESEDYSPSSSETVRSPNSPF

[2] = biological target: Glycogen synthase kinase-3 beta (Homo sapiens, UniProt P49841)
[3] = biological target: T2, TGF-beta receptor type-1 (Homo sapiens, UniProt P36897)
T2 sequence (P36897 whole entry): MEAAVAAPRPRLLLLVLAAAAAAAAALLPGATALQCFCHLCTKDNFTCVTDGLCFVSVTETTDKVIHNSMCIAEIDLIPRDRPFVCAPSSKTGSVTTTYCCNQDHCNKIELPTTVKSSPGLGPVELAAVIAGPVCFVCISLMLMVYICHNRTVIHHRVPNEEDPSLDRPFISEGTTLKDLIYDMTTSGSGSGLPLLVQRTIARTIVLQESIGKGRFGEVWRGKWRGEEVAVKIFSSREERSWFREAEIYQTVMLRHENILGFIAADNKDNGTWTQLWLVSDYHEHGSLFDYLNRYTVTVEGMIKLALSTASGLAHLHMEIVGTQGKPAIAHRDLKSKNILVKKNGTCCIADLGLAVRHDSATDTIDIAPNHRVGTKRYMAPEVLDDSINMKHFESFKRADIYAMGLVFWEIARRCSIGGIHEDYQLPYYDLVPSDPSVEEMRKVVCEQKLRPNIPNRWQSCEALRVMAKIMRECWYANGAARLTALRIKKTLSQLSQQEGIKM

[4] = biological target: Myosin light chain kinase, smooth muscle (Homo sapiens, UniProt Q15746)
[5] = biological target: T3, Discoidin domain-containing receptor 2 (Homo sapiens, UniProt Q16832)
T3 sequence (Q16832 whole entry): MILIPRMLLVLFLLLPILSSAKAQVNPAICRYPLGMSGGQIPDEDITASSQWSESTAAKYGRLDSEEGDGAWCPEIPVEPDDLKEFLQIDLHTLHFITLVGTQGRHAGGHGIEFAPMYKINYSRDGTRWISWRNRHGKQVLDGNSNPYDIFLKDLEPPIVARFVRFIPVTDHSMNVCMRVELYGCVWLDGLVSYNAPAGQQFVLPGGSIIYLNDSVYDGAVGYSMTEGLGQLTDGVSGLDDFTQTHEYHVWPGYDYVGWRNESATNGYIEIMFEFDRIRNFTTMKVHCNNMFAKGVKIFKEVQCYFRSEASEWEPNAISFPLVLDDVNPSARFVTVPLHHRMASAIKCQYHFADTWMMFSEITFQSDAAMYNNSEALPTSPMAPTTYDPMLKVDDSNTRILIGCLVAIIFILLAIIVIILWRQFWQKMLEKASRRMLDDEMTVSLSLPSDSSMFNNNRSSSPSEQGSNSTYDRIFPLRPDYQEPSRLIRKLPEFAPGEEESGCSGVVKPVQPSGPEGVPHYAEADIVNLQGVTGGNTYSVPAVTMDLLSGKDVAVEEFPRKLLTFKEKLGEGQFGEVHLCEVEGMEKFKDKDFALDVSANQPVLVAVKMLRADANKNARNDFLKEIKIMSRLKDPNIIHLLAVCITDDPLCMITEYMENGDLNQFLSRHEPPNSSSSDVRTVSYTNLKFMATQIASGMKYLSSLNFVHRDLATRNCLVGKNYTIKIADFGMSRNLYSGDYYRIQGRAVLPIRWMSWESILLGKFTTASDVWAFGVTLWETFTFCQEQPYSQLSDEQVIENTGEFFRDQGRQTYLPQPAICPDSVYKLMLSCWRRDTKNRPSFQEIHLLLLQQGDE

[6] = biological target: Activin receptor type-2A (Homo sapiens, UniProt P27037)
[7] = biological target: T4, Tyrosine-protein kinase ITK/TSK (Homo sapiens, UniProt Q08881)
T4 sequence (Q08881 whole entry): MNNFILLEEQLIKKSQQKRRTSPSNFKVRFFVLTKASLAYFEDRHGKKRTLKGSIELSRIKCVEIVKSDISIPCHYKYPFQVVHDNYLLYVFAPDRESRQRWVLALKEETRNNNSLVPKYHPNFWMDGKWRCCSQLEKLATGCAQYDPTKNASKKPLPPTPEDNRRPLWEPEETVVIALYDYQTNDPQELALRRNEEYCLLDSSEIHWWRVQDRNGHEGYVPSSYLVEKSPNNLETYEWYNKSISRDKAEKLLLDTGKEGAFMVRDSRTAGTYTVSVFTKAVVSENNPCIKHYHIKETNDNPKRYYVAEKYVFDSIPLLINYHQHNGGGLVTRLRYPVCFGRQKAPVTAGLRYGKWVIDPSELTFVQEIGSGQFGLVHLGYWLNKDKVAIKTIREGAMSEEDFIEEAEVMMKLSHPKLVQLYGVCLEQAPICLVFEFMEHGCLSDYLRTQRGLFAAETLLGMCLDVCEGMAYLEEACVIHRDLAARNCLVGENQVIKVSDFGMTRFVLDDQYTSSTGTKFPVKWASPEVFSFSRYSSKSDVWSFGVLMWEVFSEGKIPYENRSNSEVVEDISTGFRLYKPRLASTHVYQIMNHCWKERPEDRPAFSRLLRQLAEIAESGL

[8] = biological target: Tyrosine-protein kinase HCK (Homo sapiens, UniProt P08631)

Work on `CCOc1cc2ncc(C#N)c(Nc3ccc(F)c(Cl)c3)c2cc1NC(=O)/C=C/CN(C)C` [PELITINIB] yielded a Kd [1] of over 10 µM, a Kd [2] of over 10 µM and a Kd [3] of over 10 µM. It also gave a Kd [4] of over 10 µM, a Kd [5] of over 10 µM and a Kd [6] of over 10 µM.
Work on `COCC(=O)NC/C=C/c1ccc2ncnc(Nc3ccc(Oc4ccc(C)nc4)c(C)c3)c2c1` [CP-724714] yielded a Kd [1] of over 10 µM, a Kd [7] of over 10 µM and a Kd [2] of over 10 µM. The Kd [3] was over 10 µM, the Kd [8] was over 10 µM and the Kd [4] was over 10 µM. For the same compound, the Kd [5] was over 10 µM and the Kd [6] was over 10 µM.
`NC(=O)c1ccc(-c2nc(-c3ccc4c(c3)OCO4)c(-c3ccccn3)[nH]2)cc1` [SB-431542] was tested, and the Kd [1] was over 10 µM, the Kd [7] was over 10 µM and the Kd [2] was over 10 µM. It also gave a Kd [8] of over 10 µM, a Kd [4] of over 10 µM and a Kd [5] of over 10 µM. The Kd [6] was over 10 µM.
With `Nc1nc(Nc2ccc(S(N)(=O)=O)cc2)nn1C(=O)c1c(F)cccc1F` [JNJ-7706621] the Kd [7] was over 10 µM, the Kd [3] was over 10 µM and the Kd [5] was over 10 µM.
For `Oc1ccc(-c2nc(-c3ccncc3)c(-c3ccc(F)cc3)[nH]2)cc1` [SB-202190], the Kd [1] was over 10 µM, the Kd [7] was over 10 µM and the Kd [2] was 2.7 µM. For the same compound, the Kd [3] was over 10 µM, the Kd [8] was over 10 µM and the Kd [4] was over 10 µM. The Kd [5] was 1.6 µM and the Kd [6] was over 10 µM.
